How the values were obtained:
brachial artery = assay: Study 2: brachial artery flow-mediated and nitroglycerin-mediated vasodilation; assay type: in vivo, human
Procedure: Brachial artery endothelium-dependent and -independent function was measured using ultrasound, at baseline, after 8 weeks of BH4 treatment, and 1 week after discontinuation of therapy. The technique was carried out as described in Prasad et al., Circulation, 2000. 101(20): p. 2349-54. Briefly, using an 11 MHz high resolution ultrasound transducer (Acuson Inc) in a temperature-controlled room, brachial diameter was measured above the antecubital fossa in the non-dominant arm. Flow-mediated vasodilation (FMD) was measured by inflating a BP cuff on the forearm to >200 mm Hg for 5 minutes, deflating rapidly, and measuring brachial diameter at 1 minute after onset of hyperemia. For all measurements three diameters were measured on three separate end-diastolic frames and averaged. To obtain the maximal brachial artery dilation that represents FMD the following equation was used: (average diameter with hyperemia−average baseline diameter)÷average baseline diameter X 100. To measure the endothelium-independent vasodilator response, subjects were given sublingual nitroglycerin 0.4 mg and the brachial diameter was measured as above after 5 minutes. To obtain endothelium-independent vasodilation the following equation was used: (average diameter post nitroglycerin-average baseline diameter)÷average baseline diameter X 100. For both study 1 and study 2, the primary end point after statistical analysis was a reduction of systolic, mean and diastolic BP during BH4 therapy. Secondary end points included improvement of endothelial function as FMD. Linear mixed effects models for repeated measures data were used to analyze change in BP from baseline to end of treatment period and differences in change between 100 mg and 200 mg dose groups. A quadratic term for week was included in the model to account for non-linear trends over the treatment period. Dose, week and week squared were the main effect terms in the model; dose by week and dose by week squared were the interaction terms in the model. Significant interaction terms indicate a difference in the pattern of change between the two dose groups. FMD data was analyzed using the two-tailed student t-test. […] In study 2, brachial artery endothelium-dependent and independent function was measured, as described above, at the end of the 2-week vitamin C run-in period, at the end of 4 weeks of oral BH4 therapy, and 4 weeks after discontinuation of BH4.

[1] = system: venous grafts and arteries; details: acute BH4; diabetic subjects undergoing coronary artery bypass graft surgery; cited from earlier work
hypertensive patients [2] = assay: Study 2: dose-response of oral BH4 on blood pressure and heart rate, after 2-week vitamin C run-in; assay type: in vivo, human
Procedure: Prior studies have used parenteral infusion of BH4 or a single oral dose; thus it was not known whether long-term oral BH4 over a period of days to weeks would result in a sustained improvement in endothelial dysfunction. […] Two studies were conducted to investigate the duration of action of oral BH4 and the response of hypertensive subjects to different doses of BH4. […] Patients were continued on their current anti-hypertensive therapy which remained unchanged. […] BH4 powder was obtained from Schircks Laboratories (Jona, Switzerland). BH4 when administered with vitamin C was compounded with vitamin C at a ratio of 1 mg of vitamin C/1 mg BH4 into appropriate sized capsules. Subjects were advised to keep the pills in a freezer or refrigerator. For both study 1 and study 2, the primary end point after statistical analysis was a reduction of systolic, mean and diastolic BP during BH4 therapy. Secondary end points included improvement of endothelial function as FMD. Linear mixed effects models for repeated measures data were used to analyze change in BP from baseline to end of treatment period and differences in change between 100 mg and 200 mg dose groups. A quadratic term for week was included in the model to account for non-linear trends over the treatment period. Dose, week and week squared were the main effect terms in the model; dose by week and dose by week squared were the interaction terms in the model. Significant interaction terms indicate a difference in the pattern of change between the two dose groups. FMD data was analyzed using the two-tailed student t-test. […] Of the 20 subjects who qualified for participation, 4 were excluded during the run-in phase because of inability to return for follow-up appointments. There were 6 male subjects, mean age 59.5±8.3 years. Eight subjects received 200 mg b.i.d (twice daily) of oral BH4 and 8 received 100 mg b.i.d. of oral BH4. […] Because BH4 was compounded with vitamin C in a 1:1 ratio, all subjects received vitamin C, at their assigned BH4 dose, twice a day during the first 2-week period. After this 2-week run-in period, subjects received BH4 only at their assigned dosage for the next 4 weeks. Weekly heart rate and BP measurements were made during the run-in period and treatment period. Mean blood pressure was calculated as: (SBP+2×DBP)/3. BH4 was then stopped and follow-up was performed at 1 and 4 weeks after discontinuation where BP and heart rate measurements were made. Routine chemistries and LFT's were drawn prior to initiation of medication, at the end of BH4 therapy and one month after discontinuation of BH4.

hypertensive patients [3] = assay: Adverse events in Study 1 and Study 2 of oral BH4; assay type: in vivo, human; details: either study
Excerpt: Subjects between the ages of 18 and 75 years were recruited if they had uncontrolled hypertension on traditional stable anti-hypertensive therapy (BP≧135/85), or newly diagnosed hypertension (BP≧140/90). Patients were continued on their current anti-hypertensive therapy which remained unchanged. The criteria for exclusion were: female subjects with childbearing potential, history of recently symptomatic coronary or peripheral vascular disease, known secondary causes for hypertension, severe uncontrolled hypertension (BP>180 mmHg systolic and/or 110 mmHg diastolic), severe co-morbid conditions which would limit life expectancy to less than 6 months, renal or hepatic dysfunction, alteration of any concomitant anti-hypertensive therapy within the last 6 weeks, and any bleeding disorders. BH4 powder was obtained from Schircks Laboratories (Jona, Switzerland). BH4 when administered with vitamin C was compounded with vitamin C at a ratio of 1 mg of vitamin C/1 mg BH4 into appropriate sized capsules. Subjects were advised to keep the pills in a freezer or refrigerator.
Of the 20 subjects who qualified for participation, 4 were excluded during the run-in phase because of inability to return for follow-up appointments. There were 6 male subjects, mean age 59.5±8.3 years. […] Mean blood pressure was calculated as: (SBP+2×DBP)/3. […]

C[C@H](O)[C@H](O)[C@H]1CNc2nc(N)[nH]c(=O)c2N1 [BH4, tetrahydrobiopterin]
FMD (brachial artery; Study 2, 100 mg b.i.d., after therapy, 5.3±2.5% before, p=0.55, no significant change): 6.2±3.5%
FMD (brachial artery; Study 2, 200 mg b.i.d., after 4 weeks of therapy, 3.7±3% at start, p=0.016, n=7): 7.1±4.9%
FMD (brachial artery; Study 2, 200 mg b.i.d., one month after discontinuation, p=0.6 compared to baseline): 3.2±1.1%
change in nitroglycerin-mediated, endothelium-independent vasodilation (brachial artery; Study 2, either group): no significant change
vascular function in venous grafts and arteries [1]: restores
change in BP (hypertensive patients [2]; Study 2, 100 mg b.i.d. of BH4): No statistically significant change
decrease in systolic BP (hypertensive patients [2]; Study 2, 200 mg b.i.d. oral BH4, 4 weeks, p=0.03): significant decrease
decrease in mean BP (hypertensive patients [2]; Study 2, 200 mg b.i.d. oral BH4, 4 weeks, p=0.04 by linear trend analysis): significant decrease
BP after discontinuation of BH4 (hypertensive patients [2]; Study 2, 200 mg b.i.d., 4 weeks after discontinuation): returned to baseline levels
BP after termination of therapy (hypertensive patients [2]; Study 2, 200 mg b.i.d., a week after termination): remained lower
systolic BP mean lowering at nadir (hypertensive patients [2]; Study 2, 200 mg b.i.d., after 3 weeks, p=0.04): 16 mmHg
Mean BP after one week (hypertensive patients [2]; Study 2, 200 mg b.i.d., p=0.02): significantly lower
decrease in diastolic BP (hypertensive patients [2]; Study 2, 200 mg b.i.d., p=0.08): did not reach statistical significance
alteration in heart rate with BH4 (hypertensive patients [2]; Study 2, either group, 100 mg or 200 mg b.i.d.): no significant alteration
dose at which the BP-lowering effect was observed (hypertensive patients [2]; oral BH4, free of any changes in heart rate): ≥ 200 mg b.i.d.
time until reduction in BP was evident (hypertensive patients [2]; oral BH4 therapy): ≤ 1 week
adverse events (hypertensive patients [3]): no significant adverse events
